Laboratory results as given in patent publication US20100129434A1, “COMPOSITIONS AND METHODS FOR THE TREATMENT OF MUCORMYCOSIS AND OTHER FUNGAL DISEASES” (priority 2006, published 2010).
Like-named read-outs stand apart in the source and are kept apart here.

Columns and labels:
R. oryzae = test: Survival of neutropenic mice infected with R. oryzae; format: in vivo
Description: For in vivo infection, BALB/c male mice (>20 g) were rendered diabetic with a single i.p. injection of 210 mg/kg streptozotocin in 0.2 ml citrate buffer 10 days prior to fungal challenge. […] For neutropenic mouse model, mice were injected with a single i.p. dose of 200 mg/kg cyclolphosphamide (Bristol Myer Squibb) 2 days prior to infection with R. oryzae. […] Mice were infected through the tail vein with the appropriate inocula of R. oryzae. To confirm the inocula, dilutions were streaked on PDA plates containing 0.1% triton and colonies were counted following a 24 h incubation period at 37° C. The primary efficacy endpoint was time to death. As a secondary endpoint, brain fungal burden (the primary target organ) was determined by homogenization by rolling a pipette on organs placed in Whirl-Pak™ bags (Nasco®, Fort Atkinson, Wis.) containing 1 ml saline. The homogenate was serially diluted in 0.85% saline and then quantitatively cultured on PDA. Values were expressed as log10 cfu g−1 tissue. Finally, for histopathological analysis, infected organs were collected from mice and fixed in 10% zinc formalin. Fixed tissues were embedded in paraffin, and […] sections were stained with haematoxylin and eosin for light microscopy examination. All procedures involving mice were approved by the institutional animal use and care committee, following the National Institutes of Health guidelines for animal housing and care.
Two days later, mice were infected via the tail-vein with 2.7×10^3 spores of R. oryzae 99-892.

[1] = system: Th1/Th2 and inflammatory cytokine responses; test: Splenic lymphocyte frequency and whole organ cytokines in infected DKA mice; format: in vivo
Description: Splenic lymphocyte frequencies were determined as we have previously described (Spellberg et al., Infect. Immun. 71:5756-5764 (2003)). In brief, splenic homogenates were passed through 70 μm filters followed by RBC lysis with 0.15 M ammonium chloride. The cells were fixed with Cytofix™ buffer (BD Pharmingen®), permeabilized with Cytoperm™ buffer (BD Pharmingen), and stained with 10 μg/ml of FITC-conjugated anti-mouse CD4 (clone RM4-5), PE-conjugated anti-mouse IFN-γ (clone XMG1.2) or isotype control (clone R-34), allophycocyanin (APC)-conjugated anti-mouse IL-4 (clone 11B11) or isotype control (clone R3-34), or APC-conjugated anti-mouse IL-10 (clone JES5-16E3) or isotype control (clone A95-1) (all from BD Pharmingen). In separate experiments, the frequency of CD4+CD25+foxp3+T-regulatory cells were determined using the Mouse Regulatory T cell Staining™ Kit (eBioscience®) per the manufacturer's recommendation. The frequency of apoptosis was determined using the Annexin FITC Apoptosis™ kit (BD Pharmingen®).
Cells were washed and three-color flow cytometry was performed on a Becton-Dickinson FACScan™ instrument calibrated with CaliBRITE™ beads (BD Pharmingen) using FACSComp™ software as per the manufacturer's recommendations. During data acquisition, CD4+lymphocytes were gated by concatenation of forward and side scatter, and FITC-anti-CD4 antibody fluorescence properties. Data for each sample were acquired until 10,000 CD4+lymphocytes were analyzed.
Spleens and kidneys were homogenized in 1 ml of PBS. The homogenates were pelleted at maximum speed on a tabletop centrifuge at 4° C. The supernatants were assayed for cytokines using the Cytometric Bead Array Murine Inflammatory Cytokine™ kit (BD Pharmingen) per the manufacturer's instructions.
Because of the alterations in inflammatory cellular influx seen in kidneys of mice treated with saturating ferric chloride vs. iron chelation, in this example we determined the impact of deferasirox therapy on Th1/Th2 and inflammatory cytokine responses in infected mice. Diabetic ketoacidotic mice were infected with 3.1×10^4 spores of R. oryzae 99-892 as above and treated with deferasirox, deferasirox plus ferric chloride, or placebo. On day four of infection, spleens and kidneys were processed for intracellular and whole organ cytokine determination.

[2] = cited from earlier work
[3] = steady state; FDA-approved starting dose 20 mg/kg/d; cited from earlier work
[4] = R. oryzae 99-892, between the groups
[5] = R. oryzae 99-892, vs saturating iron or placebo

With `O=C(O)c1ccc(-n2nc(-c3ccccc3O)nc2-c2ccccc2O)cc1` [Deferasirox, 4-[3,5-Bis(2-hydroxyphenyl)-1H-1,2,4-triazol-1-yl]-benzoic acid] as the compound, how does the “time to death compared to placebo” value (R. oryzae; 2.7×10^3 spores R. oryzae 99-892, 10 mg/kg twice qod, five doses from 24 h post infection) read?
The value was “significantly improved time to death”.

What about the “time to death versus placebo” value (R. oryzae; R. oryzae 99-892, dosed twice daily) of the same compound?
Its value is “did not significantly improve time to death”.

What about the “Th1 and Th2 splenocyte frequencies” value ([1]; 3.1×10^4 spores R. oryzae 99-892, day four, vs saturating ferric chloride or placebo) of the same compound?
Its value is “significant increase”.

And the “kidney level of IFN-γ” value ([1]; R. oryzae 99-892)?
Its value is “significantly higher”.

And the “frequencies of CD4+IL-10+ or CD4+CD25+foxp3+ splenocytes” value [1, 4]?
Its value is “not significantly different”.

And the splenocyte apoptosis [1, 4]?
The splenocyte apoptosis was “no significant difference”.

And the “splenic level of IFN-γ” value [1, 5]?
Its value is “significantly higher”.

What about the “splenic level of TNF” value [1, 5] of the same compound?
Its value is “significantly higher”.

What about the toxicity ([2]; iron-overloaded marmosets, doses up to 400 mg/kg/d) of the same compound?
Its toxicity is “virtually no toxicity”.

And the toxicity ([2]; non-iron overloaded marmosets, 39 weeks, up to 40 mg/kg/d)?
Its toxicity is “no toxicities”.

What about the tolerability ([2]; non-iron overloaded marmosets, subacute treatment (4 weeks), up to 65 mg/kg/d) of the same compound?
Its tolerability is “well tolerated with no adverse effects”.

What about the toxicity ([2]; non-iron-overloaded marmosets, chronic administration, 80 mg/kg) of the same compound?
Its toxicity is “severe toxicity”.

And the “clinically achievable peak serum level” value [3]?
Its value is roughly 38 µg/mL.

And the “clinically achievable trough serum level” value [3]?
Its value is roughly 17 µg/mL.
